From patent US11447533B2, “Antimicrobial and anticancer peptides and conjugates and compositions, methods, articles and kits relating thereto” (George Mason Research Foundation, Inc., priority 2018, dated 2022)

Tests used:
[1] = tested on: primary lung epithelium cells; assay: Cytotoxicity (Alamar blue); type: cell-based, human
Procedure: FIGS. 11A-11B are graphs showing cytotoxicity against primary lung epithelium cells in serum-free condition. Cells were seeded in complete growth medium (Minimal essential medium supplemented with 10% fetal bovine serum) at near-confluence into a 96-well plate and allowed to settle for 24-hours. Media was then replaced to OptiMEM I reduced serum medium containing peptide or vehicle alone (DBPS) and cells were incubated overnight (16 hours). A resazurin based dye (Alamar blue) was added directly to media and conversion of resazurin to resorufin was evaluated following two hours. % Survival represents the proportion of viable cells in peptide treated cells relative to cells treated with vehicle alone. […] Each peptide was tested in triplicate.
FIG. 12 is a graph showing comparison of toxicities against Lung Primary Epithelial cells and Lung Cancerous Epithelial Cells, derived from H358 cell-line. […] Each peptide was tested in triplicate.
Cytotoxicity. Cells were seeded in complete growth medium (Minimal Essential Medium, MEMα, supplemented with 10% Fetal Bovine Serum) into a culture-treated 96-well plate at a density of 25000 cells per well. After 24 hours, culture media was aspirated and replaced with media containing the selected peptide. No-serum experiments were conducted in Opti-MEM I reduced serum media (ThermoFisher, 31985062) and 10% serum experiments were performed in complete growth medium. In all cases, DBPS was used as a vehicle only control and buffer to serially dilute the peptides. After exposure to the peptides or vehicle-alone for the defined period, Alamar blue dye (resazurin) was added directly to the media and allowed to incubate for two hours. Following incubation, A570/A600 measurements were made to calculate reduction of resazurin dye to resorufin. A ratio of reduction in treated versus untreated cells was calculated in order to determine overall cell viability. The human cells were always maintained in a 37° C. incubator under 5% CO2.

[2] = tested on: leucocytes and T-cells; conditions: cited from earlier work
[3] = tested on: E. coli ATCC 25922; assay: Antimicrobial efficacy (resazurin virtual colony count); type: cell-based, Escherichia coli
Procedure: (§1) Antimicrobial Studies. The phosphate buffers used for antimicrobial assays were supplemented with non-nitrogenous energy source, 0.1% (w/v) glucose. To conduct antimicrobial assays, bacterial strains were first suspended in respective buffers. E. coli (ATCC 25922) and B. cereus (ATCC 11778) were grown in MHB II up to OD600 nm˜1 and stored as frozen stock in 20% glycerol at −80° C. Occasionally they were thawed and enumerated by serial dilution and spreading on MHB II agar plates. The concentrations of the frozen stocks of E. coli and B. cereus strains were 1.0-1.1*10^8 CFU/mL with OD600 nm˜0.8. In case of other bacterial strains, they were grown on the days of experiment up to OD600 nm˜1-1.5 and then adjusted to OD600 nm˜0.8. The growth media of the drug-resistant bacterial strains were supplemented with few of the respective antibiotics against which they are resistant. 200 μL of the 0.8 OD600 nm culture were added to 10 mL of the respective buffer to obtain a suspension which was used to incubate with equal volumes of peptide solution in the same buffer.
(§2) Antimicrobial assays in different phosphate buffers and serum were conducted by adapting, with necessary modifications a fast high-throughput method based on Virtual Colony Count technique and later modified by incorporating the use of resazurin. At first serial dilution of a microbial strain in respective buffer was poured in the wells of 96 well polypropylene microplate and was then added with same volume of 2× MHB II supplemented with 80 μg/mL resazurin and incubated at 35° C. in a Gemini EM Microplate Reader (Molecular Devices) overnight with intermittent shaking. As the microbe grows it reduces non-fluorescent resazurin to fluorescent resorufin and the fluorescent intensity of each well were measured (excitation=570 nm, emission=590 nm) each 5 min for 15 hours. The time (t, min) to reach a certain fluorescence (RFU=20000 with respect to the starting fluorescence) was correlated with the initial bacterial concentration (in CFU/mL) in the particular well to obtain a calibration plot of the form: Log([Bacteria],CFU/mL)=b+m*t Equation 4: […]
(§3) To obtain antimicrobial efficacy of the peptides, 50 μL of serially diluted peptide in a buffer was incubated with 50 μL microbial suspension in the same buffer for 3 hours in black polypropylene 96 well plate. After incubation the wells were added with 100 μL of 2× MHB II supplemented with 80 μg/mL resazurin and then incubated with continuous fluorescence reading for overnight time period as described earlier. The surviving microbial population (CFU/mL) in each well were calculated by first finding the time to reach a fluorescence of RFU=20000 and the correlation (4) for the specific microbial strain and buffer. % Survival represents the proportion of viable cells in peptide treated cells relative to cells treated with the respective buffer alone. Equation 5: […]
Finally, the antimicrobial effectiveness of each peptide against the particular microbial strain in the specific buffer was determined by plotting % microbial survival as a function of the log of the concentration of the peptide and fitting the resulting data to a variable-slope sigmoidal regression model (equation 6). In this equation, log(EC50) represents the log of the concentration of the peptide required to kill half of the microbial population, where Smin and Smax correspond to the minimal and maximal microbial survival values (respectively), and H, Hill slope, is the parameter defining the steepness of the transition slopes of sigmoidal survival curves. % Microbial survival=Smin+(Smax−Smin)/(1+10^log(EC^50^)-log[peptide]*H) Equation 6: […]
The antimicrobial efficacies of the peptides were first tested against the model Gram-negative bacteria, E. coli ATCC 25922, in different phosphate buffers having varied ionic strengths and compositions. The phosphate buffers that were used included 10 mM sodium phosphate (calculated ionic strength˜25 mM), PBS and DPBS. […]

[4] = tested on: Pseudomonas aeruginosa; assay: Antimicrobial efficacy against ESKAPE pathogens; type: cell-based; conditions: mammalian serum
Procedure: as §1, §2, §3
Finally, the antimicrobial effectiveness of each peptide against the particular microbial strain in the specific buffer was determined by plotting % microbial survival as a function of the log of the concentration of the peptide and fitting the resulting data to a variable-slope sigmoidal regression model (equation 6). […]
ATRA1-R3W2-HYD, NA-CATH and PMB were evaluated for their effectiveness in mammalian serum conditions against pathogenic bacteria of both normal and drug-resistant strains. […]

[5] = ~16 hours (overnight), reduced serum conditions

Molecule | concentration over which toxicity was exhibited ([1]; ~6 hours, 10% fetal bovine serum) | concentration over which significant toxicity was observed [1, 5] | cytotoxicity, in words [1, 5] | concentrations of significant cytotoxicity [2] | increase of EC50 in presence of albumin relative to EC50 in DPBS ([3]; DPBS + 4% (w/v) bovine serum albumin versus DPBS) | antimicrobial efficacy, in words ([3]; serum) | antimicrobial effectiveness, in words [4]
CC[C@H](C)[C@H](NC(=O)[C@H](CCCCN)NC(=O)[C@H](CCC(=O)O)NC(=O)[C@H](CCCCN)NC(=O)[C@H](CO)NC(=O)[C@H](CCCCN)NC(=O)[C@H](CCCNC(=N)N)NC(=O)[C@H](Cc1ccccc1)NC(=O)[C@H](Cc1ccccc1)NC(=O)[C@H](CC(=O)O)NC(=O)CNC(=O)[C@H](CC(C)C)NC(=O)[C@@H](N)CC(C)C)C(=O)NCC(=O)N[C@@H](CCCCN)C(=O)N[C@@H](CCC(=O)O)C(=O)N[C@@H](Cc1ccccc1)C(=O)N[C@@H](CCCCN)C(=O)N[C@@H](CCCNC(=N)N)C(=O)N[C@H](C(=O)N[C@H](C(=O)N[C@@H](CCC(N)=O)C(=O)N[C@@H](CCCNC(=N)N)C(=O)N[C@H](C(=O)N[C@@H](CCCCN)C(=O)N[C@@H](CC(=O)O)C(=O)N[C@@H](Cc1ccccc1)C(=O)N[C@@H](CC(C)C)C(=O)N[C@@H](CCCNC(=N)N)C(=O)N[C@@H](CC(N)=O)C(=O)N[C@@H](CC(C)C)C(=O)N[C@H](C(=O)N1CCC[C@H]1C(=O)N[C@@H](CCCNC(=N)N)C(=O)N[C@H](C(=O)N[C@@H](CCC(=O)O)C(=O)N[C@@H](CO)C(=O)O)[C@@H](C)O)C(C)C)[C@@H](C)CC)C(C)C)[C@@H](C)CC [LL37] | > 10 µM | Over 10 μM | higher degrees of cytotoxicity | 13 to 25 µM |  |  | 
Polymyxin B [PMB, reference compound] |  | > 6 µM |  |  | approximately 3 fold | retained significant antimicrobial activities | effective
